Data as given in PMC5374206, “Anti-bacterial and Anti-biofilm Evaluation of Thiazolopyrimidinone Derivatives Targeting the Histidine Kinase YycG Protein of Staphylococcus epidermidis” (Frontiers in Microbiology, 2017).

What was measured:
ArlS' protein = biological target: T1, ArlS' protein (Staphylococcus epidermidis, UniProt Q5HPC4); assay: Inhibition of ArlS' autophosphorylation (Kinase-Glo Luminescent Kinase Assay); type: biochemical, S. epidermidis; conditions: for Inhibition of ArlS’ phosphorylation / Luminescence: 200 μM derivative, 2 μg purified protein, 4 μM ATP; for inhibitory effect on the autophosphorylation of ArlS': highest concentration 200 μM, result in words
T1 construct: made in house
T1 sequence (Q5HPC4 240-456): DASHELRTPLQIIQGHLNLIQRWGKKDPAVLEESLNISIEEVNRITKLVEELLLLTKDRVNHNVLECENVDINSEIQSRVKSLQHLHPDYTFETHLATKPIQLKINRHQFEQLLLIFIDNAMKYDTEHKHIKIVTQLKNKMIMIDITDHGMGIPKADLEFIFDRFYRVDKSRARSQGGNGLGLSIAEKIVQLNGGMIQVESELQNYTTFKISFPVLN

[1] = system: Enterococcus faecalis OG1RF; assay: Standard tube-dilution assay against Enterococcus faecalis; type: cell-based; conditions: result in words
[2] = Erythrocyte hemolysis assay; type: cell-based; conditions: human, erythrocytes (5% suspension), 37°C; for hemolysis at 1 h, 200 µM: at 200 μM; for hemolysis at 1 h: at MIC (against S epidermidis ATCC 35984)
Protocol: Hemolytic activities of the derivatives were measured on healthy human erythrocytes. A pure suspension of erythrocytes was obtained by washing a blood sample with sterile 0.9% NaCl saline solution. Erythrocytes were resuspended in normal saline to give a 5% solution, then treated with MIC, 4 × MIC or 200 μM of the derivatives for 1 h at 37°C in 96-well microtiter plates. After the incubation and centrifugation at 1,000 g for 10 min, supernatants were transferred to another sterile plate and the absorbance at 570 nm was measured on a spectrophotometric microplate reader. A positive control (100% hemolysis) and a negative control (0% hemolysis) were achieved by incubating with 1% Triton-X 100 and 0.1% DMSO, respectively. Each assay was performed in triplicate and repeated three times.

[3] = Aqueous solubility observation; type: physicochemical; conditions: 200 μM; precipitated after incubation at 37°C for 12 h; result in words
YycG′ protein = biological target: T2, YycG′ protein (Staphylococcus epidermidis, UniProt Q5HK19); assay: Inhibition of YycG′ autophosphorylation (Kinase-Glo Luminescent Kinase Assay); type: biochemical; conditions: 4 μM ATP; for inhibition of the enzymatic activity of YycG′ protein: 100 μM derivative, 2 μg YycG′ protein; for IC50: Kinase-Glo, 2 μg YycG′, read-out: IC50 (inhibition of autophosphorylation of recombinant YycG′)
T2 construct: made in house; host or cells: E. coli BL21(DE3)
T2 sequence (Q5HK19 384-602 limits assumed): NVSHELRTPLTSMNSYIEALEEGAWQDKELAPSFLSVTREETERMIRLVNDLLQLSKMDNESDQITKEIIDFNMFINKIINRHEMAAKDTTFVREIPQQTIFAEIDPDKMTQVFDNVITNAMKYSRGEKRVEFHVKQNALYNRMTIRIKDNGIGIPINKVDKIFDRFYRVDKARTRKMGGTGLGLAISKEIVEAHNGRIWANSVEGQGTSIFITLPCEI
Protocol: The construction of the recombinant plasmid pET28a-YycG′ (containing the HATPase_c and HisKA domains of YycG) has been previously described (Liu et al., [2014]). After being used to transform E. coli strain BL21(DE3), this recombinant plasmid was induced to express YycG′ protein by 0.4 mM isopropyl-1-thio-β-D-galactopyranoside at 21°C for 12 h. Then, the bacterial cells were disrupted by sonication and centrifuged, the supernatant was purified by Ni–NTA agarose (Qiagen, Los Angeles, CA, USA). The inhibitory activities of the compound 5 derivatives on the ATPase activity of the YycG′ protein were measured using the Kinase-Glo™ Luminescent Kinase Assay (Promega, Madison, WI, USA). Briefly, 2 μg purified YycG′ protein was pre-incubated with a series of dilutions of the derivatives in reaction buffer [40 mM Tris (pH 7.5), 20 mM MgCl2 and 0.1 mg/ml BSA] at room temperature for 30 min, 4 μM ATP was added and incubated for 30 min at room temperature, then Kinase-Glo™ Reagent was added to detect the remaining amount of ATP, as reflected by luminescence intensity (RLU). In parallel, YycG′ protein with no addition of the derivatives was used as the control and ATP only was used as a blank. The rate of inhibition of protein phosphorylation (Rp) by the derivatives was calculated by the following equation: Rp = RLU(YycG^′+derivative+ATP+Kinase−Glo™)−RLU(YycG^′+ATP+Kinase−Glo™)/RLU(ATP+Kinase−Glo™)−RLU(YycG^′+ATP+Kinase−Glo™) × 100 IC50 (the concentration resulting in 50% inhibition of YycG′ protein autophosphorylation) was obtained by using Origin v7.0 software (OriginLab, Northampton, USA).

[4] = system: S. epidermidis ATCC 35984 mature biofilms; assay: Cell viability in mature (24 h) biofilms by CLSM with Live/Dead staining; type: cell-based, Staphylococcus epidermidis; conditions: 4 × MIC, 16 h, 24 h mature biofilm; for PI fluorescence quantity (dead cells) / SYTO9 fluorescence quantity (viable cells): Image J
Protocol: The effect of the derivatives on cell viability in mature biofilms (24 h old) was determined using the Live/Dead Bacterial Viability method (Live/Dead BacLight, Molecular Probes, USA). […] The mature biofilms were stained with SYTO 9 and propidium iodide at room temperature for 15 min, following gentle washing of the dishes with normal saline, and were observed under a Leica TCS SP5 CLSM with a 63 × 1.4-NA oil-immersion objective. Further, image analysis was performed using IMARIS 7.0.0 software (Bitplane). The fluorescence quantities of biofilm were determined using Image J software. This assay was performed in triplicate and similar results were obtained.

Structure (SMILES) | Inhibition of ArlS’ phosphorylation (ArlS' protein) | Luminescence (ArlS' protein) | inhibitory effect on the autophosphorylation of ArlS' (ArlS' protein) | anti-bacterial activity [1] | hemolysis at 1 h, 200 µM [2] | hemolysis at 1 h [2] | aqueous solubility [3] | inhibition of the enzymatic activity of YycG′ protein (YycG′ protein) | IC50 (YycG′ protein) | PI/Total (reduction of the proportion of viable cells in mature biofilms) [4] | PI fluorescence quantity (dead cells) [4] | SYTO9 fluorescence quantity (viable cells) [4]
CCOC(=O)C1=C(c2ccccc2)N=c2sc(=Cc3ccc(-c4ccc(C(=O)O)cc4)o3)c(=O)n2C1c1ccc(Cl)cc1 (stereo not drawn) [H5-34, 2-[5-(4-carboxy-phenyl)-furan-2-ylmethylene]-5-(4-chloro-phenyl)-3-oxo-7-phenyl-2,3-dihydro-5H-thiazolo[3,2-a]pyrimidine-6-carboxylic acid ethyl ester] | -5.6% | 17747 + 622 RLU | None of them showed an inhibitory effect | displayed anti-bacterial activities | 0.19 ± 0.01% | 0.22 ± 0.57% | limited aqueous solubility | 80.72% | 61.9 µM | 38.80% | 39.578 ± 4.74 | 62.165 ± 6.71
CCOC(=O)C1=C(c2ccccc2)N=c2sc(=Cc3ccc(-c4cccc(C(=O)O)c4)o3)c(=O)n2C1c1ccc(F)cc1 (stereo not drawn) [H5-32, 2-[5-(3-carboxy-phenyl)-furan-2-ylmethylene]-5-(4-fluoro-phenyl)-3-oxo-7-phenyl-2,3-dihydro-5H-thiazolo[3,2-a]pyrimidine-6-carboxylic acid ethyl ester] | -5.9% | – | None of them showed an inhibitory effect | displayed anti-bacterial activities | 0.24 ± 0.05% | 0.15 ± 0.05% | – | 55.61% | 83.9 µM | 66.50% | 40.338 ± 5.03 | 20.321 ± 4.66
CCOC(=O)C1=C(c2ccccc2)N=c2sc(=Cc3ccc(-c4ccc(C(=O)O)cc4)o3)c(=O)n2C1c1ccc(F)cc1 (stereo not drawn) [H5-35, 2-[5-(4-carboxy-phenyl)-furan-2-ylmethylene]-5-(4-fluoro-phenyl)-3-oxo-7-phenyl-2,3-dihydro-5H-thiazolo[3,2-a]pyrimidine-6-carboxylic acid ethyl ester] | -1.5% | 18075 + 285 RLU | None of them showed an inhibitory effect | displayed anti-bacterial activities | 0.27 ± 0.1% | 0.17 ± 0.05% | limited aqueous solubility | 63.94% | 78.2 µM | 71.7% | 41.253 ± 5.31 | 16.283 ± 4.75
O=C(O)c1cccc(-c2ccc(C=c3sc4n(c3=O)C(c3ccc(F)cc3)C=C(c3ccccc3)N=4)o2)c1 (stereo not drawn) [H5-33, 3-{5-[5-(4-fluoro-phenyl)-3-oxo-7-phenyl-5H-thiazolo [3,2-a]pyrimidin-2-ylidenemethyl]-furan-2-yl}-benzoic acid] | -5.1% | 17786 + 382 RLU | None of them showed an inhibitory effect | displayed anti-bacterial activities | 0.32 ± 0.05% | 0.15 ± 0.06% | – | 77.04% | 64.9 µM | 88.4% | 73.684 ± 5.56 | 9.669 ± 3.64
